The supplement of paper PMC13380429

What was measured:
Settings in all cases: 72 h
HepG2 [1] = test: relative viability EC50 (midpoint between 100% and the lowest measured viability); higher = less toxic
Calu-3 [2] = test: cell viability relative to DMSO; higher = less toxic
HepG2 [3] = test: as above
U2OS [4] = test: as above
Vero E6 [5] = test: as above
Caco-2 [6] = test: as above
Calu-3 [7] = test: drug sensitivity score (DSS) for viability; higher = more toxic; extreme values may be limits of the assay
HepG2 [8] = test: as above
U2OS [9] = test: as above
Vero E6 [10] = test: as above
Caco-2 [11] = test: as above
U2OS [12] = test: relative viability EC50 (midpoint between 100% and the lowest measured viability); higher = less toxic
Caco-2 [13] = test: as above
Vero E6 [14] = test: as above

SMILES	relative viability EC50 (HepG2 [1])	cell viability (Calu-3 [2]; 1 nM)	cell viability (Calu-3 [2]; 10 nM)	cell viability (Calu-3 [2]; 100 nM)	cell viability (Calu-3 [2]; 1000 nM)	cell viability (Calu-3 [2]; 10000 nM)	cell viability (HepG2 [3]; 1 nM)	cell viability (HepG2 [3]; 10 nM)	cell viability (HepG2 [3]; 100 nM)	cell viability (HepG2 [3]; 1000 nM)	cell viability (HepG2 [3]; 10000 nM)	cell viability (U2OS [4]; 1 nM)	cell viability (U2OS [4]; 10 nM)	cell viability (U2OS [4]; 100 nM)	cell viability (U2OS [4]; 1000 nM)	cell viability (U2OS [4]; 10000 nM)	cell viability (Vero E6 [5]; 1 nM)	cell viability (Vero E6 [5]; 10 nM)	cell viability (Vero E6 [5]; 100 nM)	cell viability (Vero E6 [5]; 1000 nM)	cell viability (Vero E6 [5]; 10000 nM)	cell viability (Caco-2 [6]; 1 nM)	cell viability (Caco-2 [6]; 10 nM)	cell viability (Caco-2 [6]; 100 nM)	cell viability (Caco-2 [6]; 1000 nM)	cell viability (Caco-2 [6]; 10000 nM)	drug sensitivity score (Calu-3 [7])	drug sensitivity score (HepG2 [8])	drug sensitivity score (U2OS [9])	drug sensitivity score (Vero E6 [10])	drug sensitivity score (Caco-2 [11])	relative viability EC50 (U2OS [12])	relative viability EC50 (Caco-2 [13])	relative viability EC50 (Vero E6 [14])
CCCC(CCC)C(=O)Nc1ccn([C@@H]2O[C@H](CO)[C@@H](O)C2(F)F)c(=O)n1	0.259 µM	98.3%	97.3%	91%	91.7%	67.9%	98.3%	108%	85%	39.4%	30.1%	97.5%	100%	101%	110%	68.2%	93.7%	93%	87.7%	98.3%	63%	94.7%	106%	94.3%	96.3%	66.7%	2.3	13	1	2	2.1			
CNC(=O)c1ccc(C)c(-n2c(C)cc(OCc3ccc(F)cc3F)c(Br)c2=O)c1		94.7%	92.6%	74%	93.6%	56.8%	111%	104%	106%	99.7%	67.7%	101%	99.2%	90.2%	81.9%	78.7%	98.7%	92%	85.5%	82.3%	58.8%	90.9%	95.3%	93%	79.6%	75.4%	5.2	1.5	3.1	5	3.1	> 10 µM	> 10 µM	
Cc1ccc(/C=N/NC(=O)c2ccccc2Oc2ccccc2)o1	> 10 µM						103%	103%	91.7%	94.2%	102%	106%	97.3%	98.1%	93%	98.6%	97%	101%	98.9%	95.6%	93.7%	96%	99.6%	100%	95.2%	88.7%		0	0	0	0.1	> 10 µM	> 10 µM	> 10 µM
Cn1ncnc1COc1nn2c(-c3cc(F)ccc3F)nnc2cc1C(C)(C)C																											0	0	0	0				
CCCCCCCN(CC)CCC[C@@H](O)c1ccc(NS(C)(=O)=O)cc1 (racemic) [ibutilide]																											0	0	0	0				
CC(C)Nc1cc(-c2c[nH]c(C(=O)N[C@H](CO)c3cccc(Cl)c3)c2)c(Cl)cn1 [BVD-523]	0.703 µM	106%	97.4%	89.7%	92.1%	57.5%	104%	102%	92.6%	51.4%	19.5%	103%	101%	95.5%	96.7%	69.3%	100%	104%	91.9%	80.7%	52.9%	105%	106%	101%	76.7%	61.2%	3.5	10.5	1.9	4.5	4.7			
NCCNS(=O)(=O)c1ccc(Cl)c2ccncc12 [CKI-7]	> 10 µM						110%	94.9%	105%	102%	107%	95.6%	100%	98.8%	102%	98.7%						105%	110%	102%	102%	86.1%		0	0		0.1	> 10 µM	> 10 µM	
CC(C)CNc1ccnc(NCc2csc(-c3ccccc3)n2)n1 [KHS-101]	1.92 µM	94.1%	91.6%	101%	89.3%	64.8%	104%	102%	95.3%	86.4%	16.4%	99.9%	97.9%	102%	97%	72.9%	103%	99%	103%	101%	78.1%	91.3%	103%	98.1%	85.2%	53.3%	3.2	6.9	1.6	0.7	4.6			> 10 µM
C[C@H](Nc1ncnc2[nH]cnc12)c1nc2ccc(F)cc2c(=O)n1-c1ccccc1 [acalisib]	> 10 µM	107%	103%	104%	93.8%	65.1%	106%	107%	109%	93.7%	83.6%	109%	104%	106%	99.4%	94.3%	104%	101%	95.8%	89.9%	76.2%	105%	104%	91.6%	102%	74.9%	2.7	0.9	0	1.5	0.9	> 10 µM		> 10 µM
COc1cc(CNC(=O)CCCC/C=C/C(C)C)ccc1O [capsaicin]												106%	100%	101%	98.4%	100%	96.4%	100%	106%	107%	102%	116%	90.9%	103%	91.2%	107%			0	0	0	> 10 µM	> 10 µM	> 10 µM
O=C(O)[C@@H](S)[C@@H](S)C(=O)O [dimercaptosuccinic-acid]												101%	98.2%	101%	101%	105%	99.7%	102%	100%	101%	104%	107%	90.7%	94.2%	95.8%	110%			0	0	0	> 10 µM	> 10 µM	> 10 µM
C[C@H](Nc1ncnc2nc[nH]c12)c1cc2cccc(Cl)c2c(=O)n1-c1ccccc1 [duvelisib]		98.6%	102%	101%	88.9%	58.6%	91.8%	96.5%	97.9%	89.5%	65.9%	99.4%	92.2%	96.1%	88.6%	75.5%	105%	101%	94.9%	91.8%	76.3%	99.8%	95.4%	91.7%	84.1%	52.5%	3.8	3	1.7	1.4	4.1	> 10 µM		> 10 µM
O=C(Nc1cccc2cccnc12)c1ccc(N2C(=O)[C@@H]3[C@H](C2=O)[C@@H]2C=C[C@H]3C2)cc1 [endo-IWR-1]			108%	98.9%	81.8%	74.4%	108%	103%	98.5%		91.7%		105%	103%	98%	93.3%	110%	105%	97.6%	78.8%	66.7%	96%	94.3%	101%	89.2%	94.2%	2.9	0	0	3.9	0			
C[C@]12CCC(=O)C=C1CC[C@@H]1[C@@H]2[C@@H](O)C[C@@]2(C)[C@H]1CC[C@]2(O)C(=O)CO [hydrocortisone]																											0	2.9	0	0				
CCN(CC)CCNC(=O)c1cc(Cl)c(N)cc1OC [metoclopramide]																											0	0	0	0				
Nc1cc(N2CCCCC2)nc(N)[n+]1[O-] [minoxidil]																											0	0	0	0				
Cc1cc(=O)n(-c2ccccc2)n1C [phenazone]																											0	0.8	0	0				
CN(C)C(=S)SC(=S)N(C)C [tetramethylthiuram-monosulfide]																											8.4	11.3	5.7	8.1				
N#C[C@@H]1CCCN1C(=O)CNC12CC3CC(CC(O)(C3)C1)C2 [vildagliptin]																											0	0		0				
